In publication PMC3774784 (Bioorganic & medicinal chemistry letters, 2011):
Read-outs that look alike come from different tables or passages of the source. Each block holds one molecule with its values, some of them ahead of it.

How the values were obtained:
human VEGFR2 kinase = human VEGFR2 kinase (Homo sapiens, UniProt P35968); test: KDR ELISA assay; assay type: biochemical
KDR [1] = conditions: read-out: Reported KDR Inhibition IC50; cited from earlier work
KDR [2] = conditions: read-out: reported IC50 value; final ATP concentration 2 μM; cited from earlier work

Chain of human VEGFR2 kinase (P35968 790-1356 limits assumed): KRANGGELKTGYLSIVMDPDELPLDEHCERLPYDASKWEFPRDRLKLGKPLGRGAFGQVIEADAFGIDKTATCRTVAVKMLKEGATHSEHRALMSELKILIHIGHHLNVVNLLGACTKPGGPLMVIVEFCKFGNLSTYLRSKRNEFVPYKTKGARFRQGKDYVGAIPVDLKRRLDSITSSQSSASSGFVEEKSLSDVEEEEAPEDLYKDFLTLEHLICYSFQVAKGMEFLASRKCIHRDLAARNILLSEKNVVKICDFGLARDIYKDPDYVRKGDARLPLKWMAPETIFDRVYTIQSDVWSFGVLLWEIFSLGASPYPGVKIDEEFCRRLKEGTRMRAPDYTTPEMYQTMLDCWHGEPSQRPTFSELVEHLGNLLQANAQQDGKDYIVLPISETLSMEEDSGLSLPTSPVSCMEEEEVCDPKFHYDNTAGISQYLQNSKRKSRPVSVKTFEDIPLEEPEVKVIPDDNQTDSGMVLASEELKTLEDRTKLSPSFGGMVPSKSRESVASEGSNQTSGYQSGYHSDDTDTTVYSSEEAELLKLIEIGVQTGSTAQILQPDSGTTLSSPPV

SMILES: COc1cc2ncnc(Nc3ccc(Cl)cc3)c2cc1OC [Compound 10, (4-Chloro-phenyl)-(6,7-dimethoxy-quinazolin-4-yl)-amine]
KDR assay activity in words (human VEGFR2 kinase): relatively inactive
IC50 (KDR [1]): 800 nM

IC50 (human VEGFR2 kinase): 2500 nM
SMILES: COc1cc2ncnc(Nc3ccc(C)c(F)c3)c2cc1OC [Compound 14, (6,7-Dimethoxy-quinazolin-4-yl)-(3-fluoro-4-methyl-phenyl)-amine]

KDR assay activity in words (human VEGFR2 kinase): active
SMILES: COc1ccc(-c2cnc3c(-c4ccsc4)cnn3c2)cc1 [Compound 21, 6-(4-Methoxy-phenyl)-3-thiophen-3-yl-pyrazolo[1,5-a]pyrimidine]

IC50 (human VEGFR2 kinase; read-out: KDR IC50, 20 μM ATP): 800 nM
SMILES: COc1cc2nccc(Oc3ccc(NC(=O)Nc4ccc(F)cc4F)c(F)c3)c2cc1OC [Ki8751, reference compound]
IC50 (KDR [2]): 0.9 nM
